Measurements taken from US8030342B2, “Dendritic polyamidoamine phthalocyanine derivative” (Nihon University, priority 2006, dated 2011).
Where “and” joins values, the source holds several entries; their conditions need not be identical. Equal entries are not always repeated.

Legend:
Type in all cases: physicochemical
UV-Vis spectra = experiment: UV-Vis spectra; parameters: λmax: unit not given here; conditions: for λmax: UV-Vis absorption maxima; for log ε: UV-Vis, at the λmax of the same line
fluorescence spectra = conditions: fluorescence maximum
ESR spectra = experiment: ESR spectra
Source text: Also, the data on g value indicate that the dendritic PC generates radicals.

λmax (UV-Vis spectra)	log ε (UV-Vis spectra)	Fmax (fluorescence spectra)	g value (ESR spectra)	Compound
769.00 and 747.00	4.2560 and 4.2054	780	1.9713 and 2.0245	O=C(O)c1cc2c(cc1C(=O)O)-c1nc-2nc2[n-]c(nc3nc(nc4[n-]c(n1)c1cc(C(=O)O)c(C(=O)O)cc41)-c1cc(C(=O)O)c(C(=O)O)cc1-3)c1cc(C(=O)O)c(C(=O)O)cc21.[Zn+2] [Zn—PC octacarboxylic acid, Zinc Phthalocyanine (PC) Octacarboxylic Acid]
655.50 and 607.00	4.5813 and 4.5391	715	1.9712 and 2.0245	c1ccc2c(c1)C1=NC2=Nc2c3ccccc3c3[n]2[Zn][n]2c(c4ccccc4c2=NC2=NC(=N3)c3ccccc32)=N1 [Zn—PC]
687.50 and 654.00 and 624.50		625 and 700	1.9712 and 2.0245	c1ccc2c(c1)-c1nc-2nc2[nH]c(nc3nc(nc4[nH]c(n1)c1ccccc41)-c1ccccc1-3)c1ccccc21 [H2—PC]
690.50 and 772.50		805	2.0245 and 1.9713	Zinc Phthalocyanine Tetracarboxylic Acid [Zn—PC tetracarboxylic acid]
